The record followed here is patent US20250092056A1, “URACIL DERIVATIVES HAVING VIRUS REPLICATION INHIBITORY ACTIVITY AND PHARMACEUTICAL COMPOSITION COMPRISING THE SAME” (Shionogi & Co., Ltd., priority 2022, published 2025).

Experiment [1] concerns the target Recombinant SARS-CoV-2 3CL Protease (Severe acute respiratory syndrome coronavirus 2 (2019-nCoV) (SARS-CoV-2), UniProt P0DTD1). The experiment is described as follows: biochemical. It counts as biochemical. Conditions: 50% SARS-CoV-2 3CL protease inhibitory concentration; read-out: IC50.
The subject of experiment [2] is SARS-CoV-2. Briefly: Cytopathic effect (CPE) suppression effect confirmation test using HEK293T/ACE2-TMPRSS2 cells. It counts as cell-based. Conditions: Severe acute respiratory syndrome coronavirus 2, HEK-293T. Background: Damage to the host cells serves as the signal in cytopathic effect assays.
The mark [3] stands for this setting: 72 h, read-out: EC50 (50% SARS-CoV-2 infected cell death inhibitory concentration), class, HEK293T/ACE2-TMPRSS2 cells, CPE suppression, CellTiter-Glo 2.0 after 3 days culture.
Where [4] appears, read: 50% SARS-CoV-2 infected cell death inhibitory concentration, HEK293T/ACE2-TMPRSS2 cells, read-out: EC50.
Setting [5] is: 72 h, read-out: EC50 (50% SARS-CoV-2 infected cell death inhibitory concentration), HEK293T/ACE2-TMPRSS2 cells, CPE suppression, CellTiter-Glo 2.0 after 3 days culture.
The mark [6] stands for this setting: 72 h, HEK293T/ACE2-TMPRSS2 cells, CPE suppression, CellTiter-Glo 2.0 after 3 days culture, read-out: EC50 (50% SARS-CoV-2 infected cell death inhibitory concentration), class.

Like-named read-outs stand apart in the source and are kept apart here.

By IC50 is commonly meant the point on the concentration scale where inhibition reaches its midpoint.

As for `Cc1cncc(-n2c(=O)c(Cc3cc(F)c(F)c(F)c3)c(N3CCC4(CCC(O)C4)C3)n(CC#N)c2=O)c1` (racemic) [Compound I-110], the IC50 in experiment [1] is less than 10 nM. Besides, in experiment [2] (setting [3]), the EC50 was less than 100 nM.
Taken in the same sequence, the figures for `Cc1cncc(-n2c(=O)c(Cc3cc(F)c(F)c(F)c3)c(N3CCC(C(F)(F)F)C3)n(CC#N)c2=O)c1` (racemic) [Compound I-113] were less than 10 nM and less than 100 nM.
Taken in the same sequence, the figures for `Cc1cncc(-n2c(=O)c(Cc3cc(F)c(F)c(F)c3)c(N3CCC(C)(F)C3)n(CC#N)c2=O)c1` (racemic) [Compound I-115] were less than 10 nM and less than 100 nM.
Taken in the same sequence, the figures for `N#CCn1c(N2Cc3ccccc3C2)c(Cc2cc(F)c(F)c(F)c2)c(=O)n(C2CCNC(=O)C2)c1=O` (racemic) [Compound I-155] were greater than 100 nM and 1000 to 5000 nM.
For `N#CCn1c(N2C[C@@H]3CC[C@H]2C3)c(-c2ccc(F)c(Cl)c2)c(=O)n(-c2cncc(Cl)c2)c1=O` (racemic) [Compound I-267], the IC50 in experiment [1] is less than 10 nM. Besides, the EC50 in experiment [2] (setting [4]) is less than 100 nM.
Taken in the same sequence, the figures for `Cc1cncc(N2C(=O)N(CC#N)CC3(COc4ccc(Cl)cc43)C2=O)c1` (racemic) [Compound I-282] were 2800 nM and less than 100 nM.
Consider `N#CCn1c(N2CC[C@@](O)(C(F)F)C2)c(-c2ccc(F)c(Cl)c2)c(=O)n(-c2cncc(Cl)c2)c1=O` (single isomer, unassigned) [Compound I-238], for which, in experiment [1], the IC50 was 0.97 nM. Also, the EC50 in experiment [2] (setting [5]) is 4.62 nM.
Taken in the same sequence, the figures for `N#CCn1c(N2CC[C@](O)(C(F)F)C2)c(-c2ccc(F)c(Cl)c2)c(=O)n(-c2cncc(Cl)c2)c1=O` (single isomer, unassigned) [Compound I-239] were 0.63 nM and 3.15 nM.
With `N#CCn1c(N2CC[C@@](O)(c3ccccc3)C2)c(-c2ccc(F)c(Cl)c2)c(=O)n(-c2cncc(Cl)c2)c1=O` (single isomer, unassigned) [Compound I-240], in experiment [1], the IC50 is less than 10 nM. Moreover, the EC50 in experiment [2] (setting [4]) is less than 100 nM.
Taken in the same sequence, the figures for `N#CCn1c(N2CC[C@](O)(c3ccccc3)C2)c(-c2ccc(F)c(Cl)c2)c(=O)n(-c2cncc(Cl)c2)c1=O` (single isomer, unassigned) [Compound I-241] were less than 10 nM and less than 100 nM.
As for `C[C@@H](C#N)n1c(N2CC3(CCOC3)C2)c(-c2ccc(F)c(Cl)c2)c(=O)n(-c2cncc(Cl)c2)c1=O` (single isomer, unassigned) [Compound I-262], the IC50 in experiment [1] was less than 10 nM. The EC50 in experiment [2] (setting [4]) is less than 100 nM.
Taken in the same sequence, the figures for `C[C@H](C#N)n1c(N2CC(C(C)(C)O)C2)c(-c2ccc(F)c(Cl)c2)c(=O)n(-c2cncc(Cl)c2)c1=O` (single isomer, unassigned) [Compound I-288] were less than 10 nM and less than 100 nM.
Taken in the same sequence, the figures for `C[C@@]1(O)CCN(c2c(-c3ccc(F)c(Cl)c3)c(=O)n(-c3cncc(Cl)c3)c(=O)n2CC#N)C1` (single isomer, unassigned) [Compound I-294] were less than 10 nM and less than 100 nM.
Turning to `N#CCn1c(N2CC[C@@](O)(C3CC3)C2)c(-c2ccc(F)c(Cl)c2)c(=O)n(-c2cncc(Cl)c2)c1=O` (single isomer, unassigned) [Compound I-356], the IC50 in experiment [1] is less than 10 nM. Also, the EC50 in experiment [2] (setting [4]) was less than 100 nM.
Taken in the same sequence, the figures for `C[C@@H](C#N)n1c(N2CCC(F)(F)CC2)c(-c2ccc(F)c(Cl)c2)c(=O)n(-c2cncc(Cl)c2)c1=O` (single isomer, unassigned) [Compound I-386] were less than 10 nM and less than 100 nM.
With `C[C@](O)(CCc1c(-c2ccc(F)c(Cl)c2)c(=O)n(-c2cncc(Cl)c2)c(=O)n1CC#N)C(F)F` (single isomer, unassigned) [Compound I-392], the IC50 in experiment [1] was less than 10 nM. The EC50 in experiment [2] (setting [4]) was less than 100 nM.
Taken in the same sequence, the figures for `C[C@@](O)(CCc1c(-c2ccc(F)c(Cl)c2)c(=O)n(-c2cncc(Cl)c2)c(=O)n1CC#N)C(F)F` (single isomer, unassigned) [Compound I-393] were less than 10 nM and less than 100 nM.
As to `C[C@@H](C#N)n1c(N2CC[C@@](O)(C(F)F)C2)c(-c2ccc(F)c(F)c2)c(=O)n(-c2cncc(Cl)c2)c1=O` (single isomer, unassigned) [Compound I-419], the IC50 in experiment [1] is less than 10 nM. Also, the EC50 in experiment [2] (setting [4]) is less than 100 nM.
Taken in the same sequence, the figures for `C[C@H](C#N)n1c(N2CC[C@@](O)(C(F)F)C2)c(-c2ccc(F)c(Cl)c2)c(=O)n(-c2cncc(Cl)c2)c1=O` (single isomer, unassigned) [Compound I-423] were less than 10 nM and less than 100 nM.
Taken in the same sequence, the figures for `C[C@@H](C#N)n1c(N2CC[C@@](O)(C(F)F)C2)c(-c2ccc(F)c(C#N)c2)c(=O)n(-c2cncc(Cl)c2)c1=O` (single isomer, unassigned) [Compound I-427] were less than 10 nM and less than 100 nM.
Taken in the same sequence, the figures for `C[C@@H](C#N)n1c(N2CC[C@@](O)(C(F)F)C2)c(-c2ccc(F)c(C(F)F)c2)c(=O)n(-c2cncc(Cl)c2)c1=O` (single isomer, unassigned) [Compound I-428] were less than 10 nM and less than 100 nM.
As to `C[C@](O)(CCc1c(-c2ccc(F)c(Cl)c2)c(=O)n(-c2cncc(C#N)c2)c(=O)n1CC#N)C(F)F` (single isomer, unassigned) [Compound I-429], the half-inhibitory concentration (IC50) in experiment [1] is less than 10 nM. Also, in experiment [2] (setting [4]), the EC50 is less than 100 nM.
Taken in the same sequence, the figures for `C[C@@](O)(CCc1c(-c2ccc(F)c(Cl)c2)c(=O)n(-c2cncc(C#N)c2)c(=O)n1CC#N)C(F)F` (single isomer, unassigned) [Compound I-430] were less than 10 nM and less than 100 nM.
For `C[C@@H](C#N)n1c(N2CC[C@](O)(C(F)F)C2)c(-c2ccc(F)c(Cl)c2)c(=O)n(-c2cncc(Cl)c2)c1=O` (single isomer, unassigned) [Compound I-431], the IC50 in experiment [1] is less than 10 nM. The EC50 in experiment [2] (setting [4]) was less than 100 nM.
Taken in the same sequence, the figures for `C[C@@H](C#N)n1c(N2CC[C@@](O)(C(F)F)C2)c(-c2ccc(F)c(C(F)F)c2)c(=O)n(-c2cncc(C#N)c2)c1=O` (single isomer, unassigned) [Compound I-432] were less than 10 nM and less than 100 nM.
Taken in the same sequence, the figures for `C[C@@H](C#N)n1c(N2CC[C@@](O)(C(F)F)C2)c(-c2ccc(F)c(Cl)c2)c(=O)n(-c2cncc(C#N)c2)c1=O` (single isomer, unassigned) [Compound I-433] were less than 10 nM and less than 100 nM.
Taken in the same sequence, the figures for `C[C@@H](C#N)n1c(N2CC[C@](O)(C(F)F)C2)c(-c2ccc(F)c(F)c2)c(=O)n(-c2cncc(Cl)c2)c1=O` (single isomer, unassigned) [Compound I-434] were less than 10 nM and less than 100 nM.
For `CN1C[C@@H]2CN(c3c(Cc4cc(F)c(F)c(F)c4)c(=O)n(Cc4ncn(C)n4)c(=O)n3CC#N)C[C@@H]2C1` [Compound I-003], the half-inhibitory concentration (IC50) in experiment [1] was greater than 100 nM. For the same compound, the EC50 in experiment [2] (setting [3]) fell in the range of 1000 to 5000 nM.
Consider `Cn1cnc(Cn2c(=O)c(Cc3cc(F)c(F)c(F)c3)c(-c3cc4ccccc4s3)n(CC#N)c2=O)n1` [Compound I-005], for which the IC50 in experiment [1] is greater than 100 nM. Further, the EC50 in experiment [2] (setting [3]) fell in the range of 100 to 1000 nM.
Taken in the same sequence, the figures for `Cn1cnc(Cn2c(=O)c(Cc3cc(F)c(F)c(F)c3)c(N3CCc4ccccc4C3)n(CC#N)c2=O)n1` [Compound I-006] were greater than 100 nM and 100 to 1000 nM.
Taken in the same sequence, the figures for `N#CCn1c(N2CC3(CCOC3)C2)c(Cc2cc(F)c(F)c(F)c2)c(=O)n(-c2cncnc2)c1=O` [Compound I-007] were greater than 100 nM and 100 to 1000 nM.
Taken in the same sequence, the figures for `Cn1cnc(Cn2c(=O)c(Cc3cc(F)c(F)c(F)c3)c(N3Cc4ccccc4C3)n(CC#N)c2=O)n1` [Compound I-008] were greater than 100 nM and 100 to 1000 nM.
`COc1ccc(Oc2c(-c3cccc4ccccc34)c(=O)n(-c3cncc(C)c3)c(=O)n2CC#N)cc1` [Compound I-009]: the IC50 in experiment [1] was greater than 100 nM. Moreover, the EC50 in experiment [2] (setting [3]) was in the range of 100 to 1000 nM.
Taken in the same sequence, the figures for `Cc1cncc(-n2c(=O)c(Oc3cc(F)c(F)c(F)c3)c(Oc3cc(F)c(F)c(F)c3)n(CC#N)c2=O)c1` [Compound I-010] were greater than 100 nM and 1000 to 5000 nM.
Regarding `Cc1cncc(-n2c(=O)c(C(=O)c3cc(F)c(F)c(F)c3)c(-c3cc4ccccc4s3)n(CC#N)c2=O)c1` [Compound I-011], the IC50 in experiment [1] is 10 to 100 nM. In addition, the EC50 in experiment [2] (setting [6]) is less than 100 nM.
Taken in the same sequence, the figures for `Cc1cncc(-n2c(=O)c(Cc3cc(F)c(F)c(F)c3)c(-c3cccc(C#N)c3)n(CC#N)c2=O)c1` [Compound I-012] were 10 to 100 nM and less than 100 nM.
As to `Cc1cncc(-n2c(=O)c(Oc3ccccc3)c(N3Cc4ccccc4C3)n(CC#N)c2=O)c1` [Compound I-014], the IC50 in experiment [1] was determined as 5.1 nM. For the same compound, the EC50 in experiment [2] (setting [5]) worked out at 17 nM.
Take `Cc1cncc(-n2c(=O)c(-c3ccc(F)c(Cl)c3)c(Cl)n(CC#N)c2=O)c1` [Compound I-015]: the IC50 in experiment [1] is less than 10 nM. The EC50 in experiment [2] (setting [3]) fell in the range of 100 to 1000 nM.
Taken in the same sequence, the figures for `Cc1cncc(-n2c(=O)c(-c3cccc4ccccc34)c(N3Cc4cn[nH]c4C3)n(CC#N)c2=O)c1` [Compound I-016] were less than 10 nM and less than 100 nM.
Taken in the same sequence, the figures for `Cc1cncc(-n2c(=O)c(-c3ccc(F)c(Cl)c3)c(-c3cnc4ccccc4c3)n(CC#N)c2=O)c1` [Compound I-017] were less than 10 nM and less than 100 nM.
